Active and inactive are the calls of the source.
How the values were obtained:
Protein skinhead-1 = target: T1, Protein skinhead-1 (Caenorhabditis elegans, UniProt P34707); format: functional
T1 sequence (P34707 whole entry): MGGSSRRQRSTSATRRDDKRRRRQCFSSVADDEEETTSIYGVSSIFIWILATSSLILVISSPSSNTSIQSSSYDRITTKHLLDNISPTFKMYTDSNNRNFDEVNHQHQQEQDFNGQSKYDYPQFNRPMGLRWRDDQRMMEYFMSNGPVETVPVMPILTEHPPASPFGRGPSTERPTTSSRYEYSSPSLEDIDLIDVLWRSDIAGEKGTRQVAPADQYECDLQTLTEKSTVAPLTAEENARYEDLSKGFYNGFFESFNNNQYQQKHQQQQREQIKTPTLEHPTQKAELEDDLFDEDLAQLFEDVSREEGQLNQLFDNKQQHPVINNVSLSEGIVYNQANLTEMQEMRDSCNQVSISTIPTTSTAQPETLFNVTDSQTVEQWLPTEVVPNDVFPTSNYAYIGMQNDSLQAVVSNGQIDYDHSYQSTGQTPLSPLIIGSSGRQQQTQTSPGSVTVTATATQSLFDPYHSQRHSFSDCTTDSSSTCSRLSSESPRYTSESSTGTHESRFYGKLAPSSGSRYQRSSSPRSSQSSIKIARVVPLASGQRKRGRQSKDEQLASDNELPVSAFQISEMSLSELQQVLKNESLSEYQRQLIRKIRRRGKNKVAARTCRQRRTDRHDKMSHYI

[1] = target: T2, Kappa-type opioid receptor (Homo sapiens, UniProt P41145); format: functional
T2 sequence (P41145 whole entry): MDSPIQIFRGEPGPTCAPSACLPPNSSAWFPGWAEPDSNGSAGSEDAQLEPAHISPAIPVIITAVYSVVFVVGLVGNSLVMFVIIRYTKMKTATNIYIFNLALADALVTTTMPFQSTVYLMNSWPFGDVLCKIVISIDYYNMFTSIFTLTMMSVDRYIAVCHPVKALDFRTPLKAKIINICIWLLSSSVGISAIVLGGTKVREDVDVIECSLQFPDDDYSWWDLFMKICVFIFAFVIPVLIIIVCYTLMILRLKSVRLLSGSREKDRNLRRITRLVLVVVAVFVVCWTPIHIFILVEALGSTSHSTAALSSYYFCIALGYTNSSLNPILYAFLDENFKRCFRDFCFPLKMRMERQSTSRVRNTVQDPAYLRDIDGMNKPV

cells [2] = format: functional, cell-based
[3] = target: Type-1 angiotensin II receptor (Homo sapiens, UniProt P30556); experiment: antagonism of angiotensin II type 1 receptor – cell-based, uHTS hits, selectivity assay for APJ receptor antagonist project, dose response (AID 463214); format: functional;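 also: antagonist potency against angiotensin II stimulated AT1 response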
Sequence of Type-1 angiotensin II receptor (P30556 whole entry): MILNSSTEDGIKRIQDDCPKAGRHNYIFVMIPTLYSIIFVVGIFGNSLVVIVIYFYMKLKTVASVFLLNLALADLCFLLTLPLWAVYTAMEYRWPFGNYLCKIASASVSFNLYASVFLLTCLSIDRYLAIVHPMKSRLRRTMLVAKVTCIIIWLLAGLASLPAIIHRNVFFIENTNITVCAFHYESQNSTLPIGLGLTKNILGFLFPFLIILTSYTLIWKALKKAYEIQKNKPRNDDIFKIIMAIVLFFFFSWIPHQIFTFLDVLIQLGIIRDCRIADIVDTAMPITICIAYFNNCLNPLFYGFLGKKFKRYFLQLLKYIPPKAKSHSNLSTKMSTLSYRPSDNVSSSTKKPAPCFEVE

[4] = A549 cell cytotoxicity, dose response, cytotoxicity control, plate reader, cherry-pick, antagonist series (AID 743412); format: functional, cell-based
INS1 = experiment: INS-1E survival protection against cytokine death – cell-based, luminescence, retest, dose response (AID 449756); format: functional; settings: Rattus norvegicus;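 also: cell death triggered by IL-1 beta plus TNF-alpha plus IFN-gamma mixture; protective hits raise ATP signal compared with cytokine alone wells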
Beta-galactosidase [5] = target: T3, Beta-galactosidase (Escherichia coli, UniProt Q8VNN2); format: functional
T3 sequence (Q8VNN2 whole entry): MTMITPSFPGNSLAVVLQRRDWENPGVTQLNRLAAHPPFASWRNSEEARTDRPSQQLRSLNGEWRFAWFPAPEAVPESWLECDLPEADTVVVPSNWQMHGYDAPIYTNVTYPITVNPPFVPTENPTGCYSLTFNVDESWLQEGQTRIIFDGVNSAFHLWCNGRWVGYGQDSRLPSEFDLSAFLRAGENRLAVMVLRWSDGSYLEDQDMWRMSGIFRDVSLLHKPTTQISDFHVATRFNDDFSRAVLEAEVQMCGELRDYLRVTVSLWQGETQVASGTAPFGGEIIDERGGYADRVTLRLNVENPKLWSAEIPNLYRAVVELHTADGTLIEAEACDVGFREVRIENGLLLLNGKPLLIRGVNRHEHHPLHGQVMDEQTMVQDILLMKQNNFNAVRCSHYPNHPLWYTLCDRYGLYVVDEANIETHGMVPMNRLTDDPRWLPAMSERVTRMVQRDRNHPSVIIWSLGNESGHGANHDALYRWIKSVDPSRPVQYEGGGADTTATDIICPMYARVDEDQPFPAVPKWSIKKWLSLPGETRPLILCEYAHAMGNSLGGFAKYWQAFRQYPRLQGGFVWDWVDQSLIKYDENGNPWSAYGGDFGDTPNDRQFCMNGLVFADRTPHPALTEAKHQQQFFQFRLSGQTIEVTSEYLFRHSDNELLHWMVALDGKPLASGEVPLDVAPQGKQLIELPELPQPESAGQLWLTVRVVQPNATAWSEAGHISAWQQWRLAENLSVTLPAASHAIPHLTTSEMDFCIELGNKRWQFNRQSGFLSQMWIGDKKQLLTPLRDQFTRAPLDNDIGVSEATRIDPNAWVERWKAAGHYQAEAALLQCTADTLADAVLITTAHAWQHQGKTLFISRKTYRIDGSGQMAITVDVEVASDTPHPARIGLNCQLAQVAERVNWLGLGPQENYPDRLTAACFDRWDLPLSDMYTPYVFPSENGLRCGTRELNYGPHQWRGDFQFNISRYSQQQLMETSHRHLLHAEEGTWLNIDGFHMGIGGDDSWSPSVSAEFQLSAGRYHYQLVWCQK

Vero [6] = experiment: cells; format: functional, cell-based; settings: Chlorocebus sabaeus
[7] = target: T2, Kappa-type opioid receptor; format: functional; remark: listed apart in the source
[8] = loss of viability in HepG2 cells – cell-based, CellTiter-Glo, cherry-picked, cytotoxicity control for Shn3 inhibitor project, dose response (AID 624134); format: functional
[9] = HepG2 cell cytotoxicity, dose response, cytotoxicity control for non-replicating M. tuberculosis project (AID 489018); format: functional; settings: Mycobacterium tuberculosis
[10] = blockers of bursicon-stimulated LGR2 cAMP reporter – cell-based, HEK293, CRE-luciferase reporter, cherry pick, set 2, dose response (AID 743343); format: functional;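 also: transfected cells were stimulated with diluted bursicon conditioned medium after compound addition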
[11] = toxicity toward HepG2 liver cells – cell-based, plate reader, cherry-pick, antagonist series, cytotoxicity control, dose response (AID 743416); format: functional
cells [12] = format: functional
[13] = non-specific 3'UTR reporter inhibition in Clone20-Shn3RL – cell-based, Renilla luciferase, cherry-picked, counter-screen for Shn3 inhibitor project, dose response (AID 624133); format: functional
[14] = DRD fibroblast viability loss – cell-based, non-viral oncogenic, luminescence, dose response (AID 1934); format: functional; settings: Homo sapiens
[15] = blockade of melanocortin 4 receptor signaling – cell-based, plate reader, cherry pick, counter-screen for LGR2 antagonist project, dose response (AID 743444); format: functional;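 also: transfected HEK 293 cells stimulated with alpha-MSH peptide; potency of inhibitors of the alpha-MSH evoked signal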
Vero [16] = experiment: cells; format: functional; settings: Chlorocebus sabaeus
BJ [17] = experiment: cells; format: functional, cell-based; settings: Homo sapiens
[18] = reduction of Shn3 3'UTR-driven luciferase in osteoblasts – cell-based, Clone20 osteoblasts, firefly luciferase, cherry-picked, dose response (AID 624132); format: functional;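 also: firefly luciferase luminescence from reporter carrying the Shn3 3'UTR in osteoblasts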
cells [19] = format: functional, cell-based; remark: listed apart in the source
Beta-galactosidase [20] = target: T3, Beta-galactosidase; experiment: PubChem AID 485352; format: functional
BJ [21] = experiment: BJ-TERT-LT-ST fibroblast viability loss – cell-based, RAS-independent, luminescence, dose response (AID 1935); format: functional; settings: Homo sapiens;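 also: BJ fibroblasts immortalized with TERT plus LT and ST oncogenes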
[22] = Vero E6 cell cytotoxicity, dose response, cytotoxicity control for non-replicating M. tuberculosis project, secondary assay (AID 492998); format: functional, VeroE6; settings: Vero C1008
[23] = THP-1 cell cytotoxicity, dose response, cytotoxicity control for non-replicating M. tuberculosis project (AID 489025); format: functional
BJ [24] = experiment: BJ-TERT fibroblast viability loss – cell-based, RAS-independent, luminescence, dose response (AID 1933); format: functional; settings: Homo sapiens
[25] = viability loss in HEK293 cells – cell-based, plate reader, cherry-picked samples, cytotoxicity control, dose response (AID 743446); format: functional
Streptococcus = experiment: GAS UMAA2166 growth inhibition – luminescence, BacTiterGlo, counter-screen for streptokinase expression inhibitor project, dose response (AID 1915); format: functional, organism-based;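 also: potency for reduction of bacterial viability or growth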
[26] = system: Streptococcus sp. 'group A'; experiment: Streptococcus pyogenes SK(-)GAS viability under kanamycin – luminescence, BacTiterGlo, confirmation, counter-screen for streptokinase expression inhibitor project, dose response (AID 1900); format: functional, organism-based
Streptokinase A = target: T4, Streptokinase A (Streptococcus pyogenes serotype M1, UniProt P10520); experiment: viability-normalized secreted streptokinase activity reduction – plasminogen activation absorbance, OD405, dose response (AID 1914); format: functional, Streptococcus pyogenes M1 GAS;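 also: secreted streptokinase activity via plasminogen activation per viability signal from cell pellet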
T4 sequence (P10520 whole entry): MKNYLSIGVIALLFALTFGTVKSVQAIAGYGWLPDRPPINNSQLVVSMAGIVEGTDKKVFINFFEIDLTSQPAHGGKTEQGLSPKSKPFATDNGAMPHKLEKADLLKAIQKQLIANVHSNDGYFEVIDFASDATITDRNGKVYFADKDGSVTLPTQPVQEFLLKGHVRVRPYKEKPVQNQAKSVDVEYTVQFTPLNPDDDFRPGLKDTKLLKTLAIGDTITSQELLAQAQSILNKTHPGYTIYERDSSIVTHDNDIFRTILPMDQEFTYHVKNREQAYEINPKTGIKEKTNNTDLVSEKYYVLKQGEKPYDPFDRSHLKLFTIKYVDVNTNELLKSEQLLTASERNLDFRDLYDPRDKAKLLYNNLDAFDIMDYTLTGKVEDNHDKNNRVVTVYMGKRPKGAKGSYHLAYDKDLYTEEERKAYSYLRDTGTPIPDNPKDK

With O=C(Nc1nc2c(F)cc(F)cc2s1)c1ccccn1 the IC50 (Protein skinhead-1) was > 100 µM (inactive), the IC50 [1] was 8.25 µM (active) and the EC50 (cells [2]) was > 350 µM (not active). The IC50 [3] was 9.46 µM (active), the AC50 [4] was 2.66 µM (active) and the AC50 (INS1) was 2.08 µM (active). The EC50 (Beta-galactosidase [5]) was > 31.5 µM (inactive), the IC50 (Vero [6]) was > 25 µM (active) and the IC50 [7] was greater than 32 µM. The AC50 [8] was 15.2 µM (active), the CC50 [9] was 4.95 µM (active) and the AC50 [10] was 4.05 µM (active). For the same molecule, the AC50 [11] was 2.09 µM (active), the IC50 (cells [12]) was 0.42 µM (active) and the AC50 [13] was 2.21 µM (active). For the same molecule, the EC50 [14] was 1.63 µM (active), the AC50 [15] was 3.17 µM (active) and the CC50 (Vero [16]) was 7.89 µM (active). The EC50 (BJ [17]) was 78.2 µM (active), the AC50 [18] was 6.69 µM (active) and the EC50 (cells [19]) was 7.18 µM (active). For the same molecule, the EC50 (Beta-galactosidase [20]) was > 40 µM (inactive), the EC50 (BJ [21]) was > 150 µM (not active) and the CC50 [22] was 2.12 µM (active). The CC50 [23] was 2.14 µM (active), the EC50 (BJ [24]) was 11.2 µM (active) and the AC50 [25] was 10.8 µM (active).
For Cc1ccc(NNC(=O)c2cc(C(C)(C)C)nn2Cc2ccccc2)cc1, the EC50 (Streptococcus) was > 150 µM (not active), the IC50 [3] was 3.81 µM (active) and the EC50 [26] was 17.5 µM (active). For the same molecule, the EC50 (Streptokinase A) was 29.5 µM (active) and the EC50 (Beta-galactosidase [20]) was > 40 µM (inactive).

Reference: ChEMBL document CHEMBL1201862, “PubChem BioAssay data set” (2004)
